Article PMC10059083, “Design, Synthesis, and Biological Evaluation of Novel Hydroxamic Acid-Based Organoselenium Hybrids” (Pharmaceuticals, 2023)
≈ marks a conversion by molar mass, not a printed value.

Tests used:
[1] = system: S. aureus; assay: Agar diffusion assay, S. aureus; type: cell-based; settings: Staphylococcus aureus; 6-mm disks soaked with 20 μM of the OSe agents; read-out: S. aureus ZID (inhibition zone diameter)
[2] = system: S. aureus; assay: Agar diffusion assay, S. aureus; type: cell-based, Staphylococcus aureus; design: concentration or dose not given beside the values; settings: ratio of inhibition zone of compound to that of positive control (ampicillin)
Description: (§1) The encouraging antitumor properties of the OSe compounds motivated us to evaluate their corresponding antimicrobial activities against the C. albicans fungal strain, S. aureus Gram-positive bacteria, and E. coli Gram-negative bacteria. Therefore, we applied the agar diffusion and minimum inhibitory concentration (MIC) methods using clotrimazole antifungal and ampicillin antibacterial drugs as standards.
The products’ antimicrobial properties were examined according to the previously reported method, via agar well diffusion assay against E. coli, S. aureus, and C. albicans. A microdilution method was also used to record MICs (M), following the previously reported procedure. Experimental details can be found in the Supplementary Materials. […]
(§2) 1.1.2. The antimicrobial activity
The antimicrobial activities of the OSe compounds were evaluate d against C. albicans yeast as well as E. coli gram-negative and S. aureus gram-positive bacteria employing the agar well diffusion assay.
(§3) Briefly, a concentration of 1 mM was prepared for each compound by dissolving in DMSO. Paper discs of standard size […] were sterilized in an autoclave and soaked in 9 µL of the test compounds, and placed in the Petri dishes, which in turn contain a nutrient media (agar 9 g, peptone 5 g, and beef extract 3 g) seeded with the dedicated strain. Incubation lasted for 13 h at 36 0C.
Experiments were replicated three times and the antifungal clotrimazole and antibiotic ampicillin […]

[3] = system: E. coli; assay: Agar diffusion assay, E. coli; type: cell-based, Escherichia coli
Description: as §1
(§4) The products’ antimicrobial properties were examined according to the previously reported method, via agar well diffusion assay against E. coli, S. aureus, and C. albicans. A microdilution method was also used to record MICs (M), following the previously reported procedure. Experimental details can be found in the Supplementary Materials.
1.1. […]
as §2
The antimicrobial activities of the OSe compounds were evaluate d against C. albicans yeast as well as E.
coli gram-negative and S. aureus gram-positive bacteria employing the agar well diffusion assay. […]
5 g, and beef extract 3 g) seeded with the dedicated strain. Incubation lasted for 13 h at 36 0C.
Experiments were replicated three times and the antifungal clotrimazole and antibiotic ampicillin
1.1.3. […]

[4] = system: MCF-7 cells; assay: MTT antiproliferative assay, MCF-7 cells; type: cell-based
Description: Recently, OSe agents have attracted interest due to their potential chemoprotective and antitumor properties. […] Therefore, we estimated the OSe agents’ antiproliferative activities against different cancer cells, i.e., MCF-7 and HepG2 cells and healthy lung fibroblast WI-38 cells, using the MTT assay. The drug doxorubicin was employed as the standard. The corresponding therapeutic indices (TI) are described as the proportion of the WI38 cells IC50 to the IC50 of the cancer cell (e.g., MCF-7 and HepG2) (Table 1).
The products’ anticancer activity was examined using the MTT assay against breast (MCF-7) carcinoma cells, liver (HepG2), and normal WI-38 cells, following the previously reported method. Experimental details can be found in the Supplementary Materials.
1.1. The biological assays
1.1.1. The anticancer activity
The breast adenocarcinoma (MCF-7), Hepatocellular carcinoma (HEPG-2), and normal fibroblast (WI-38) cells were obtained from ATCC via Holding company for biological products and vaccines (VACSERA), Cairo, Egypt. The reagents […] medium, MTT, DMSO, and fetal bovine serum was obtained from Sigma Aldrich. Dulbecco’s modified Eagle’s medium was used as the culture medium for the cells, and the cytotoxicity was evaluated using the reported MTT assay. Doxorubicin was used as the positive reference, and the IC50 values were obtained from the corresponding dose-response curve.
This colorimetric assay is based on converting the yellow tetrazolium bromide (MTT) to a purple formazan derivative by mitochondrial succinate dehydrogenase in viable cells. Cell lines were cultured in […] medium with 10% fetal bovine serum. Antibiotics added were 100 units/ml penicillin and 100µg/ml streptomycin at 37 C in a 5% Co2 incubator. The cell lines were seeded in a 96-well plate at a density of 1.0x10^4 cells/well. at 37 C for 48 h under 5% Co2. After incubation, the cells were treated with different concentrations of compounds and incubated for 13 […]
Finally, dimethyl sulfoxide (DMSO) in the volume of 100 µl is added to each well to dissolve the purple formazan formed. The colorimetric assay is measured and recorded at an absorbance of 570 […]
The percentage of the relative cell viability was calculated as (A570 of treated samples/A570 of the untreated sample) X 100. […]

[5] = system: S. aureus; assay: MIC by microdilution, S. aureus; type: cell-based; settings: Staphylococcus aureus; microdilution method
Description: as §1, §4
as §3, with “0C. […]” for “0C.”

`Nc1ccc([Se]CC(=O)NOCc2ccccc2)cc1` [Compound 8, 2-((4-Aminophenyl)selanyl)-N-(benzyloxy)acetamide] was tested, and the zone of inhibition at 20 µM [1] was 19 mm, the “S. aureus IA% (activity index)” value [2] was 90.5% and the “E. coli ZID (inhibition zone diameter)” value ([3]; 6-mm disks soaked with 20 μM of the OSe agents) was 16 mm. For the same molecule, the “E. coli IA% (activity index)” value ([3]; ratio of inhibition zone of compound to that of positive control (ampicillin)) was 69.6%, the IC50 ([4]; Homo sapiens, MCF7, 24 h, read-out: MCF7 IC50) was 9.86 ± 0.7 µM and the “MCF7 TI (therapeutic index)” value ([4]; ratio of IC50 against WI38 cells to IC50 against MCF-7 cells) was 2.8. It also gave an MIC [5] of 4 µM (≈ 1.34 µg/mL).
